One data set concerns Mouse B16 melanoma cells. As to the kind of experiment: In vitro tumor cell growth suppressing activity (Test Example 1). The note with it: 37° C., 3 days. It counts as cell-based. The procedure:
Antitumor activity of the above-mentioned compounds was tested as follows. Mouse B16 melanoma cells were plated on a 96-well culture plate, test compounds were added to the cells one day after, and then the plate was incubated at 37° C. for 3 days under a 5%-CO2 atmosphere. According to the method described in Cancer Res. 48, 589-601, 1988, the concentrations of compounds required to inhibit cell growth by 50% were obtained. The activity is expressed by the concentrations (micrograms/milliliter). The result with distamycin is also shown for comparison.

In data set [1] the test system is Colon 26 mouse colon cancer cells. As to the kind of experiment: In vivo antitumor activity, subcutaneously implanted Colon 26 (Test Example 2). More on the design: species or system mouse (female CDF1 mice). The note with it: Colon 26 s.c. in CDF1 mice, i.v. on day 1, tumors weighed day 15; for 50% T/C: 21600 min. As to the method:
A cell suspension of Colon 26 mouse colon cancer cells (1×10^7 cells/ml) in HBSS (Hanks' Balanced Salt Solution) was prepared. This cell suspension (0.1 ml each) was implanted subcutaneously into the lateral region of female CDF1 mice (day 0). One day after the tumor cell injection (day 1), the body weight of the mice was measured, and then solutions of test compounds (5% glucose solutions containing 5% Tween 80) were injected intravenously into the tails of the mice. On day 15, the resulting tumors were taken out and weighed.
Percent average weights of tumors of animals in the test groups, in which the compounds were injected, with respect to those in the control group, in which no compounds were injected, were calculated and given as T/C values.

A short description of data set [2]: Stability of compounds (1), remaining rate by HPLC after 3 days (Test Example 3). It counts as physicochemical. As to the method: In order to compare stabilities of the compounds, remaining rates of compounds were obtained by incubating the compounds at about 4° C. and 50° C. for 3 days and measuring comparative peak areas on HPLC (Table 4).
A short description of data set [3]: Stability of compounds (2), remaining rate by HPLC after one month at 60° C. (Test Example 4). The format is physicochemical. As to the method:
Stability of these compounds was investigated. As an index of stability, remaining rates of compounds were obtained by measuring remaining compounds after heating at 60° C. for one month. The remaining rates were measured by HPLC.

SMILES strings stand for the structures. ≈ marks a conversion by molar mass, not a printed value.

Data on five molecules can be found in patent US5808087A, “Sulfonium salts of pyrrolylbenzimidazoles” (priority 1995, dated 1998).

Broadly, the fraction remaining is the share of the starting amount still present when the sample was taken. `Cn1cc(NC(=O)CC[S+](C)C)cc1-c1nc2cc(C(=O)Nc3ccc(N(CCCl)CCCl)cc3)ccc2[nH]1` [1*^1]: in the data set on Mouse B16 melanoma cells, the “50% Suppressing Concentration” value turned out to be 0.71 µg/mL. Besides, the “50% T/C” value in data set [1] is 7.19 mg/kg. In data set [2] (50° C.), this molecule yielded an amount remaining at 72 h of 100%. This molecule also gave an amount remaining at 730 h in data set [3] of 96.7%.
`Cn1cc(NC(=O)CC[S+](C)C)cc1-c1nc2cc(C(=O)Nc3ccc(N(CCCl)CCCl)cc3)ccc2[nH]1` [25*^2]: the “50% Suppressing Concentration” value with Mouse B16 melanoma cells came out at 0.99 µg/mL. Moreover, in data set [1], the “50% T/C” value turned out to be 9.35 mg/kg. The molecule further registered a Remaining rate in data set [3] (43800 min) of 99.4%.
Take `COc1cccc2c1C(=O)c1c(O)c3c(c(O)c1C2=O)C[C@@](O)(C(=O)CO)C[C@@H]3O[C@H]1C[C@H](N)[C@H](O)[C@H](C)O1` [Adriamycin, adriamycin, reference compound]: in data set [1] (Mus musculus, iv, 360 h, read-out: 50% T/C), the ED50 was 12.4 mg/kg.
Turning to `Cn1cc(NC(=O)c2cc(NC(=O)c3cc(NC=O)cn3C)cn2C)cc1C(=O)NCCC(=N)N` [Distamycin, distamycin, reference compound], the IC50 in the data set with Mouse B16 melanoma cells (Mus musculus, 72 h, read-out: 50% Suppressing Concentration) is 36 µg/mL (≈ 74.8 µM).
The molecule `Cn1cc(NC(=O)CC[S+](C)C)cc1-c1nc2cc(C(=O)Nc3ccc(N(CCCl)CCCl)cc3)ccc2[nH]1` [IODIDE] came in with a fraction remaining at 72 h in data set [2] (4° C.) of 99%. The molecule also registered a Remaining rate in data set [2] (50° C., 4320 min) of 83%.
